In US20070021359A1, “Addition salts of azithromycin and citric acid and process for preparing them” (priority 2003, published 2007):

What was measured:
[1] = cited from earlier work
[2] = cited from earlier work; remark: listed apart in the source
[3] = solubility in water / aqueous solutions; assay type: physicochemical; settings: aqueous solution, ambient temperature
Description: The azithromycin citrate of the invention provides aqueous solutions up to 65% (w/w) at ambient temperature, with a pH between 6.8 and 7.5. The new addition salts of azithromycin and citric acid of the invention are particularly useful in the preparation of aqueous or water-alcohol solutions of azitromycin containing up to 65% of the salt, providing a pH between 4 and 8, stable and not suffering from chemical degradation of azithromycin.

Molecule	solubility in water [1]	stability in aqueous acid medium [2]	concentration of aqueous solutions provided [3]
CC[C@H]1OC(=O)[C@H](C)[C@@H](O[C@H]2C[C@@](C)(OC)[C@@H](O)[C@H](C)O2)[C@H](C)[C@@H](O[C@@H]2O[C@H](C)C[C@H](N(C)C)[C@H]2O)[C@](C)(O)C[C@@H](C)CN(C)[C@H](C)[C@@H](O)[C@]1(C)O [azithromycin, 9-deoxo-9a-aza-9a-methyl-9a-homoerythromycin A]	very insoluble	not stable	
azithromycin citrate			up to 65 % (w/w)
